Results reported in US6928770B2, “Alternating layer non-edible foraging matrix configurations for crawling arthropods” (priority 1999, dated 2005).
Values joined by “and” are separate entries in the source; they are usually repeats but may differ in a detail not shown here. Equal values may be shown once. Read-outs that look alike come from different tables or passages of the source.

Assays:
Type in all cases: in vivo
[1] = system: termites (Reticulitermes flavipes (Kollar)); assay: Second experiment: test arena with treated foraging matrix disc at lower rates, termite survival in arenas; settings: for Time for cessation of termite activity: second experiment, activity in the monitors not detected
Text: (§1) Data from two sets of experiments are included. In the first set of experiments, a total of 3,000 termites were used (2,970 workers and 30 soldiers) in all three replicates. In the second set of experiments, 3,000 termites were used in 4 replicates and 1,400 termites (1,386 workers and 14 soldiers) were used in two replicates for a total of six replicates. Fewer termites from 2 colonies were used because we could not collect enough to complete the replicates if a total of 3000 termites were used. The termites (Reticulitermes flavipes (Kollar)) were field collected from field colonies, separated from debris, and held in the laboratory at the USDA (United States Department of Agriculture) for no more than 14 days before introduction into a test arena for each experimental block. Termites from a different colony were used for each replicate.
(§2) The test arena consisted of Plexiglas sides (45 cm long, by 30 cm wide by 5.5 cm high) taped to a glass bottom (45 cm long, by 30 cm wide, by 0.6 cm high) with clear packing tape, manufactured by Crystal Clear, Manco Inc., Avon, Ohio. The Plexiglas sides were assembled by joining pieces with methylene chloride. Before the Plexiglas sides were taped to the glass bottom, the sides were baked in an oven at 40+/−2° C. for 24 hours to ensure that any volatiles caused by the methylene chloride were removed.
(§3) Builders sand from Unified Classification SP, O'Steen Bros., Inc., of Gainesville, Fla., was oven dried at 60+/−2° C. for at least 24 hours in metal pans. The sand was cooled and sieved using a sieve manufactured from Fisher Scientific Co., USA sieve no. 25, having openings of approximately 0.0278 inches each. The sieve was used to remove large pieces of debris. Two thousand five hundred grams (+/−1 g) of sand were poured into the arena and mixed thoroughly with 250 ml of double filtered, de-ionized water, which brought the moisture content of the sand to 10%. The sand was tamped and leveled.
(§4) Three monitoring stations were placed on top of the moistened builder's sand. The monitors were made of one roll of corrugated cardboard (100 cm by 6.5 cm) that was moistened and stacked into a white PVC coupler having an inner diameter of approximately 7 cm and being approximately 7.3 cm high, manufactured from Lasco of Brownsville, Tenn.
(§5) The non-edible foraging matrix treated with toxicant and used for the testing was a loamy, siliceous, thermic, arenic paleudults soil, which was a common sandy loam native soil from Central Florida. This native soil was initially oven dried at 150+/−2° C. for at least 24 hours, then cooled, then sifted to remove large pieces of organic debris. After treatment with a toxicant, the treated non-edible foraging matrix was formed into a disc for insertion into the monitors after termite activity occurred. The color contrast between the builder's sand, which was light honey color, and the native non-edible foraging matrix, which was a dark brown, was enough to see termites move portions of the treated soil particles from the discs into the tunnels.
The second application had the non-edible foraging matrix sample treated with 2.5 and 25.0 ppm of chlofenapyr, a version entitled Phantom from American Cyanamid of Princeton, N.J. A third application had the non-edible foraging matrix treated with 1.25 and 12.5 ppm of fipronil, a version entitled Termidor, from Rhone-Poulenc of Research Triangle, N.C. It is important to note that the rates used were approximately 10 and 100 times less than the rates use in the first experiment and are also 10 to 100 times less than the rates listed or proposed on the pesticide labels. Thus, the rates used in this experiment was not used for the intended purpose of the chemicals, which was to immediately kill the termites by creating a chemical barrier completely around the structure.
In both experimental set ups, controls were treated with filtered and de-ionized water. […]

subterranean termites [2] = settings: embodiment 3
Procedure: In the first experiment for embodiment 3, oven dried Alachua fine soil was treated with approximately 125.0 ppm chlorfenapyr as the non-edible foraging matrix 550. The mixture 550 was poured into the opening 542 and wet to a moisture level of 10%. The amount of mixture 550 added to opening 542 was recorded for each replicate. Plastic containers (approximately 11.5 cm diameter, approximately 10 cm high) were filled with approximately 514 g of builder's sand and wet to a moisture level of approximately 10%. Embodiment 3 was assembled and inserted into the builder's sand in the plastic cup, 500 subterranean termites were added and the termites were allowed to tunnel for 3 weeks. After 3 weeks, the plastic container setup was disassembled. The number of live termites in the experimental unit was recorded. The amount of mixture 550 displaced from embodiment 2 was measured and recorded.
Alive refers to number of termites alive after three(3) weeks exposure. %Mortality refers to percentage of termites that died after three(3) weeks exposure. Soil Moved(g) refers to total amount soil removed by the termites per each replication(per experimental unit).
(§6) In the second experiment, mixture 550 was tested at a concentration of approximately 12.5 ppm chlorfenapyr. Experimental procedure was identical to what is listed above.

[3] = system: termites (Reticulitermes flavipes (Kollar)); assay: First experiment: test arena with three monitors, treated non-edible foraging matrix disc in one monitor
Text: as §1, §2, §3, §4, §5
In both sets of experiments, three different non-edible foraging matrix treatment applications were prepared using novel selected amounts of termite treatment chemicals. The difference between the first experiment and the second experiment was the rates used. […] The second application had the non-edible foraging matrix sample treated with 250 ppm of chlorfenapyr, a version entitled Phantom from American Cyanamid of Princeton, N.J. A third application had the non-edible foraging matrix treated with 125 ppm of fipronil, a version entitled Termidor, from Rhone-Poulenc of Research Triangle, N.C.
In both experimental set ups, controls were treated with filtered and de-ionized water. The treated non-edible foraging matrix was air dried for 7 days and stored in sealed plastic bags until ready for use. […]

subterranean termites [4] = settings: embodiment 2
Procedure: In the first experiment for embodiment two, oven dried Alachua fine soil was treated with approximately 125.0 ppm chlorfenapyr as the non-edible foraging matrix 550. The mixture 550 was poured into the opening 542 and wet to a moisture level of 10%. The amount of mixture 550 added to opening 542 was recorded for each replicate. Circular plastic containers having a diameter of approximately 11.5 cm by approximately 10 cm thick were filled with approximately 514 g of builder's sand and wet to a moisture level of approximately 10%. Embodiment 2 was inserted into the builder's sand in the plastic cup, 500 subterranean termites were added and the termites were allowed to tunnel for 3 weeks. After 3 weeks, the plastic container setup was disassembled. The number of live termites in the experimental unit was recorded. The amount of mixture 550 displaced from embodiment 2 was measured and recorded. Data were analyzed with a comparison test, between an untreated control sample and four replications(experimental units) of chlorfenatyr(slow acting toxicant).
Alive refers to number of termites alive after three(3) weeks exposure. %Mortality refers to percentage of termites that died after three(3) weeks exposure. Soil Moved(g) refers to total amount soil removed by the termites per each replication(per experimental unit). […] An average of 99.95% of the termites in treated units died, compared with 8.8% mortality in the control unit. […] Total untreated mixture 550 moved from embodiment 2 to the surrounding area was approximately 3.93 g, compared with an average of approximately 1.49 g of mixture 550 treated with approximately 125.0 ppm chlorfenapyr.
as §6

[5] = approximately 12.5 ppm chlorfenapyr
[6] = approximately 125.0 ppm chlorfenapyr

Compound: CCOCn1c(-c2ccc(Cl)cc2)c(C#N)c(Br)c1C(F)(F)F [Chlorfenapyr, chlorfenapyr]
- Mean ± SE percent survival of termites ([1]; chlorfenapyr 2.5 ppm foraging matrix, after 8 weeks): 9.33 ± 5.05a^1%
- Mean ± SE percent survival of termites ([1]; chlorfenapyr 2.5 ppm foraging matrix, after 8 weeks, listed as chlorfenapyr): 9.33%
- Mean ± SE percent survival of termites ([1]; chlorfenapyr 25.0 ppm foraging matrix, after 8 weeks): 0.16 ± 0.16b %
- Mean ± SE percent survival of termites ([1]; chlorfenapyr 25.0 ppm foraging matrix, after 8 weeks, listed as chlorfenapyr): 0.16%
- Termite kill (in words) ([1]; chlorfenapyr at 25 ppm): killed virtually all the termites
- Time for cessation of termite activity [1]: 8 weeks
- Alive (number of termites alive) (subterranean termites [2]; 125.0 ppm chlorfenapyr, 500 termites, after 3 weeks exposure, per replication): 0
- % Mortality (subterranean termites [2]; 125.0 ppm chlorfenapyr, after 3 weeks exposure, per replication): 100.0%
- Amount of mixture 550 moved, treated compared with untreated (subterranean termites [2]; [5]): significantly less treated mixture 550 moved
- Mortality compared with untreated controls (subterranean termites [2]; [5]): no significant difference
- % Mortality (subterranean termites [2]; approximately 12.5 ppm chlorfenapyr, after 3 weeks exposure, per replication): 100%
- Average percentage of termites in treated units that died (subterranean termites [2]; approximately 12.5 ppm chlorfenapyr, approximately 18.5% in untreated control units): approximately 37.7%
- Amount of mixture 550 moved, treated compared with untreated (subterranean termites [2]; [6]): significantly more of the untreated mixture 550 was moved
- Average percentage of termites in treated units that died (subterranean termites [2]; approximately 125.0 ppm chlorfenapyr, approximately 9.6% in control unit): 100.0%
- Mean ± SE number of termites in monitors ([3]; foraging matrix 250 ppm chlorfenapyr, week 1): 100 ± 11.9
- Mean ± SE number of termites in monitors ([3]; foraging matrix 250 ppm chlorfenapyr, week 2): 60.7 ± 12.9
- Mean ± SE number of termites in monitors ([3]; foraging matrix 250 ppm chlorfenapyr, week 3): 21.3 ± 12.2
- Mean ± SE number of termites in monitors ([3]; foraging matrix 250 ppm chlorfenapyr, week 4): 10.9 ± 7.6
- Mean ± SE number of termites in monitors ([3]; foraging matrix 250 ppm chlorfenapyr, week 5): 3.5 ± 3.3
- Mean ± SE number of termites in monitors ([3]; foraging matrix 250 ppm chlorfenapyr, week 6): 0.8 ± 0.8
- Mean ± SE number of termites in monitors ([3]; foraging matrix 250 ppm chlorfenapyr, week 7): 0 ± 0
- Mean ± SE number of termites in monitors ([3]; foraging matrix 250 ppm chlorfenapyr, week 8): 0 ± 0
- Amount of mixture 550 moved, treated compared with untreated (subterranean termites [4]; [5]): no significant difference
- Mortality compared with untreated replications (subterranean termites [4]; [5]): significantly higher
- Average percentage of termites in treated units that died (subterranean termites [4]; approximately 12.5 ppm chlorfenapyr, approximately 13.2% in untreated control units): approximately 85.3%
- Amount of mixture 550 moved, treated compared with untreated (subterranean termites [4]; [6]): significantly more of the untreated mixture 550 was moved
- Mortality compared with untreated replications (subterranean termites [4]; [6]): significantly higher
- Average percentage of termites in treated units that died (subterranean termites [4]; approximately 125.0 ppm chlorfenapyr, 3 weeks, 8.8% in control unit): 99.95%
- % Mortality (subterranean termites [4]; approximately 125.0 ppm chlorfenapyr, after 3 weeks exposure, per replication): 100.0% and 99.8%
- Amount of mixture 550 moved, 12.5 ppm compared with 125.0 ppm (subterranean termites [4]; chlorfenapyr 12.5 ppm vs 125.0 ppm): significantly more mixture 550 treated at 12.5 ppm was moved
- Mortality, approximately 125 ppm compared with approximately 12.5 ppm (subterranean termites [4]; chlorfenapyr 125 ppm vs 12.5 ppm): no significant differences

Compound: O=[N+]([O-])NC1=NCCN1Cc1ccc(Cl)nc1 [Imidacloprid, imidacloprid]
- percent survival ([1]; imidacloprid 0.5 and 5.0 ppm foraging matrix, 23% in untreated arenas): 17%
- Mean ± SE percent survival of termites ([1]; imidacloprid 0.5 ppm foraging matrix, after 8 weeks): 17.13 ± 11.61a %
- Mean ± SE percent survival of termites ([1]; imidacloprid 5.0 ppm foraging matrix, after 8 weeks): 17.57 ± 9.36a %
- Time for cessation of termite activity [1]: 8 weeks
- Termites in the monitors ([3]; 50 ppm imidacloprid, first experiment, summary of Table 1): 54 termites
- Mean ± SE number of termites in monitors ([3]; foraging matrix 50 ppm imidacloprid, week 1): 82.0 ± 2.7
- Mean ± SE number of termites in monitors ([3]; foraging matrix 50 ppm imidacloprid, week 2): 67.5 ± 0.1
- Mean ± SE number of termites in monitors ([3]; foraging matrix 50 ppm imidacloprid, week 3): 45.7 ± 14.9
- Mean ± SE number of termites in monitors ([3]; foraging matrix 50 ppm imidacloprid, week 4): 13.7 ± 2.9
- Mean ± SE number of termites in monitors ([3]; foraging matrix 50 ppm imidacloprid, week 5): 8.0 ± 3.7
- Mean ± SE number of termites in monitors ([3]; foraging matrix 50 ppm imidacloprid, week 6): 3.2 ± 3.0
- Mean ± SE number of termites in monitors ([3]; foraging matrix 50 ppm imidacloprid, week 7): 1.4 ± 1.4
- Mean ± SE number of termites in monitors ([3]; foraging matrix 50 ppm imidacloprid, week 8): 1.8 ± 0.9

Compound: N#Cc1nn(-c2c(Cl)cc(C(F)(F)F)cc2Cl)c(N)c1[S+]([O-])C(F)(F)F (stereo not drawn) [Fipronil, fipronil]
- Mean ± SE percent survival of termites ([1]; fipronil 1.25 ppm foraging matrix, after 5 weeks): 0.51 ± 0.30b %
- percent survival ([1]; fipronil 12.5 and 1.25 ppm foraging matrix, 39% in untreated arenas): 0.3-0.5%
- Mean ± SE percent survival of termites ([1]; fipronil 12.5 ppm foraging matrix, after 5 weeks): 0.30 ± 0.29b %
- Termite kill (in words) ([1]; fipronil at 1.25 and 12.5 ppm): killed virtually all the termites
- Time for cessation of termite activity [1]: 5 weeks
- Mean ± SE number of termites in monitors ([3]; foraging matrix 125 ppm fipronil, week 1): 73.8 ± 11.1
- Mean ± SE number of termites in monitors ([3]; foraging matrix 125 ppm fipronil, week 2): 44.3 ± 18.8
- Mean ± SE number of termites in monitors ([3]; foraging matrix 125 ppm fipronil, week 3): 14.6 ± 8.0
- Mean ± SE number of termites in monitors ([3]; foraging matrix 125 ppm fipronil, week 4): 6.4 ± 3.4
- Mean ± SE number of termites in monitors ([3]; foraging matrix 125 ppm fipronil, week 5): 2.6 ± 1.6
- Mean ± SE number of termites in monitors ([3]; foraging matrix 125 ppm fipronil, week 6): 0.3 ± 0.3
- Mean ± SE number of termites in monitors ([3]; foraging matrix 125 ppm fipronil, week 7): 0 ± 0
- Mean ± SE number of termites in monitors ([3]; foraging matrix 125 ppm fipronil, week 8): 0 ± 0
